# Measurements reported in patent US20250302983A1, “Saponin Conjugates” (priority 2018, published 2025).
# Legend:
# HeLa cells = experiment: HeLa cell viability assay (MTS): SO1861 + dianthin-EGF with PAMAM, PAMAM-conjugates, G4-dendron or chloroquine; type: cell-based, human; conditions: positive control
# From the text: Whether or not a first proteinaceous molecule comprising saponins, either or not further comprising one or more (cleavable) linkers and/or optionally a scaffold, is able to disturb the acidic environment and […] the endosomal escape function of the at least one glycoside (saponin) can be easily determined with an assay as described in Example 3 and as known in the art. The inhibition is described as “fold amount increases of glycoside necessary to induced 50% cell killing”. […] The fold increase is to be measured in assay, essentially as described in Example 4, wherein Chloroquine, as a positive control, induces a 2-fold increase in glycoside amount, preferably saponin amount wherein the saponin is any one or more of the saponins of the invention (see Table A1, Scheme I, previous embodiments) to observe 50% cell killing.
# HeLa cells were seeded in DMEM (PAN-Biotech GmbH) supplemented with 10% fetal bovine serum (PAN-Biotech GmbH) and 1% penicillin/streptomycin (PAN-Biotech GmbH), in a 96 well plate at 5,000 c/w in 100 μL/well and incubated overnight at 37° C. and 5% CO2. The next day 20× concentrated stocks of the PAMAM, PAMAM-conjugates, G4-dendron (prepared in Example 3) or chloroquine (Sigma Aldrich) samples were prepared in DMEM. […]
# [1] = test system: SK-BR-3, JIMT-1, MDA-MB-468, A431, CaSki, HeLa, A2058; experiment: control treatments, relative cell viability on various cancer cell lines (FIG. 12); type: cell-based, human; conditions: wide range of concentrations toxin tested, up to 100.000 pM
Molecule,fold increase in glycoside (saponin) amount to observe 50% cell killing (HeLa cells) [fold],influence on cell viability [1]
CCN(CC)CCCC(C)Nc1ccnc2cc(Cl)ccc12 (centres unmarked) [Chloroquine],2,–
saporin,–,do not or hardly have any influence on cell viability
